This passage reports inhibition and IL-6 results from patent publication US11197878B2, “Anti-inflammatory composition including novel quercetin-based compound” (AMOREPACIFIC CORPORATION, priority 2017, dated 2021).

In the assay the test system is IL-6 (Interleukin 6). Kind of assay: Test for inhibiting generation of IL-6 in H2O2-stimulated fibroblast (ELISA). It is filed as cell-based. The conditions noted are these: for inhibition at 100 µg/mL: Fibroblast, 100 μg/ml, {1−(test sample−control)/(H2O2−control)}×100, read-out: Inhibition effect according to Equation 1, IL-6; for IL-6: fibroblast culture medium, H2O2 500 μM 24 hours, then test material (31, 32: 100 μg/ml) 48 hours, ELISA. How it is done:
Fibroblast (PromoCell, Germany) was inoculated in a 6-well culturing plate at a concentration of 1×10^5 cells, and cultured in a 5% CO2 incubator at 37° C. for 24 hours. The well was treated with H2O2 500 μM and stimulated for 24 hours, and then were treated with quercetin3-O-[3-O″-(E)-p-coumaroyl][β-D-glucopyranosyl-(1→3)-O-α-L-rhamnopyranosyl-(1→6)-O-β-D-glucopyranoside] (‘New Material 31’) and quercetin3-O-[3-O″-(E)-p-coumaroyl][α-L-rhamnopyranosyl-(1→6)-O-β-D-glucopyranoside]) (‘New Material 32’) at a concentration of 100 μg/ml, respectively, and reacted for 48 hours. After the reaction was finished, the culture medium was collected and the ELISA analysis was performed. Herein, α-bisabolol, which is the material typically used as an anti-inflammatory agent and abirritant, was used as a control. As PGE2, a kit of Assay Design® was used, and as IL-6 and IL-8, a kit of Endogen® was used, and the test was carried out according to the methods prescribed in the manuals of the respective companies. (‘31’ refers to New Material 31, and ‘32’ refers to New Material 32) Inhibition effect={1−(test sample−control)/(H2O2−control)}×100 <Equation 1>

On to `C[C@@H]1O[C@@H](OC[C@H]2O[C@@H](Oc3c(-c4ccc(O)c(O)c4)oc4cc(O)cc(O)c4c3=O)[C@H](O)[C@@H](OC(=O)/C=C/c3ccc(O)cc3)[C@@H]2O)[C@H](O)[C@H](O[C@@H]2O[C@H](CO)[C@@H](O)[C@H](O)[C@H]2O)[C@H]1O` [New Material 31, quercetin3-O-[3-O″-(E)-p-coumaroyl][β-D-glucopyranosyl-(1→3)-O-α-L-rhamnopyranosyl-(1→6)-O-β-D-glucopyranoside]], for which the inhibition at 100 µg/mL turned out to be 29.2% and the IL-6 came out at 226 pg/mL.
Taken in the same sequence, the figures for `C[C@@H]1O[C@@H](OC[C@H]2O[C@@H](Oc3c(-c4ccc(O)c(O)c4)oc4cc(O)cc(O)c4c3=O)[C@H](O)[C@@H](OC(=O)/C=C/c3ccc(O)cc3)[C@@H]2O)[C@H](O)[C@H](O)[C@H]1O` [New Material 32, quercetin3-O-[3-O″-(E)-p-coumaroyl][α-L-rhamnopyranosyl-(1→6)-O-β-D-glucopyranoside]] were 29.2% and 226 pg/mL.
